# Test results taken from patent US9458110B2, “Phenylpyrazole derivatives as potent ROCK1 and ROCK2 inhibitors” (BRISTOL-MYERS SQUIBB COMPANY, priority 2013, dated 2016).
# pIC50: −log10 of the molar value.
# Columns and labels:
# ROCK1 = ROCK1 (Homo sapiens (Human), UniProt Q13464); test: ROCK assay (Caliper LABCHIP peptide phosphorylation), ROCK1; assay type: biochemical; details: 5 μM ATP, 1.5 μM peptide substrate;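 further: Read-out is separation of phosphorylated from unphosphorylated peptide, with kinase activity inhibition computed at every concentration of a dose-response series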
# ROCK2 = ROCK2 (Homo sapiens (Human), UniProt O75116); test: ROCK assay (Caliper LABCHIP peptide phosphorylation), ROCK2; assay type: biochemical; details: 5 μM ATP, 1.5 μM peptide substrate;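 further: reaction stopped with EDTA, then phosphorylated and unphosphorylated peptide resolved by microfluidic electrophoresis, kinase inhibition computed at each compound concentration in dose-response series, DMSO under 2%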
# ROCK2, sequence (O75116 whole entry, species assumed): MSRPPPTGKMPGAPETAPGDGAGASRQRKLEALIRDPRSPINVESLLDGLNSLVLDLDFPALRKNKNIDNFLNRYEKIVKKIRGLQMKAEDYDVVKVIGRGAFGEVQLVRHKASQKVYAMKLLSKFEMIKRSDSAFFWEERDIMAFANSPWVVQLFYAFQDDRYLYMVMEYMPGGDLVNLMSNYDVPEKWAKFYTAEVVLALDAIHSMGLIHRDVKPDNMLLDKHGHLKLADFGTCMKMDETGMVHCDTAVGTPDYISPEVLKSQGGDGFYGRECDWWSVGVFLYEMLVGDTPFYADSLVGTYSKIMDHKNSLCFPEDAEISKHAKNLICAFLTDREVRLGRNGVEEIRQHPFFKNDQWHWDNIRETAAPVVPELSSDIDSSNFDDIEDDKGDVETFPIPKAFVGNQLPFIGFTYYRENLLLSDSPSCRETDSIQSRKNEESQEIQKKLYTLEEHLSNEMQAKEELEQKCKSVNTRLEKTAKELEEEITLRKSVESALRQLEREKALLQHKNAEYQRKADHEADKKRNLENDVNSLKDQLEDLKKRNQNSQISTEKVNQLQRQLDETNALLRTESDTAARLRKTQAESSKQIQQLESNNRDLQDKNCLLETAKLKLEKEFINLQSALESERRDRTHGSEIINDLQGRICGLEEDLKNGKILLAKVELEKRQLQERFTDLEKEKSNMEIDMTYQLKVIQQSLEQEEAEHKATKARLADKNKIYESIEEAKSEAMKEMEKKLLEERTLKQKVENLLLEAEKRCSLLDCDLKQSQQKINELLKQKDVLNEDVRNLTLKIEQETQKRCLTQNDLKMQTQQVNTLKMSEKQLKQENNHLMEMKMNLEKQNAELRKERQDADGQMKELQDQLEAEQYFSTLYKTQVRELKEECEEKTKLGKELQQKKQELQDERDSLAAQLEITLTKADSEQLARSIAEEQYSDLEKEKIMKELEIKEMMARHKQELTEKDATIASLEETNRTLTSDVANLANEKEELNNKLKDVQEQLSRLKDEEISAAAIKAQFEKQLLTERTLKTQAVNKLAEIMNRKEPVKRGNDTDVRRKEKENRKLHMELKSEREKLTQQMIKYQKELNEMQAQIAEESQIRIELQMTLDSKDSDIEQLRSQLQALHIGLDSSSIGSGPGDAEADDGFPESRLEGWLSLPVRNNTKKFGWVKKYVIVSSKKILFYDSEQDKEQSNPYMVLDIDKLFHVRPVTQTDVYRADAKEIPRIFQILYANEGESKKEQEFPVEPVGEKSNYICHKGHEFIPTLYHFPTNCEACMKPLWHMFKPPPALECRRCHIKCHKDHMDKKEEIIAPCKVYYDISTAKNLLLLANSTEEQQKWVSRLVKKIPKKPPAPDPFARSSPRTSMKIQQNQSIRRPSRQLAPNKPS
# ROCK1, sequence (Q13464 whole entry, species assumed): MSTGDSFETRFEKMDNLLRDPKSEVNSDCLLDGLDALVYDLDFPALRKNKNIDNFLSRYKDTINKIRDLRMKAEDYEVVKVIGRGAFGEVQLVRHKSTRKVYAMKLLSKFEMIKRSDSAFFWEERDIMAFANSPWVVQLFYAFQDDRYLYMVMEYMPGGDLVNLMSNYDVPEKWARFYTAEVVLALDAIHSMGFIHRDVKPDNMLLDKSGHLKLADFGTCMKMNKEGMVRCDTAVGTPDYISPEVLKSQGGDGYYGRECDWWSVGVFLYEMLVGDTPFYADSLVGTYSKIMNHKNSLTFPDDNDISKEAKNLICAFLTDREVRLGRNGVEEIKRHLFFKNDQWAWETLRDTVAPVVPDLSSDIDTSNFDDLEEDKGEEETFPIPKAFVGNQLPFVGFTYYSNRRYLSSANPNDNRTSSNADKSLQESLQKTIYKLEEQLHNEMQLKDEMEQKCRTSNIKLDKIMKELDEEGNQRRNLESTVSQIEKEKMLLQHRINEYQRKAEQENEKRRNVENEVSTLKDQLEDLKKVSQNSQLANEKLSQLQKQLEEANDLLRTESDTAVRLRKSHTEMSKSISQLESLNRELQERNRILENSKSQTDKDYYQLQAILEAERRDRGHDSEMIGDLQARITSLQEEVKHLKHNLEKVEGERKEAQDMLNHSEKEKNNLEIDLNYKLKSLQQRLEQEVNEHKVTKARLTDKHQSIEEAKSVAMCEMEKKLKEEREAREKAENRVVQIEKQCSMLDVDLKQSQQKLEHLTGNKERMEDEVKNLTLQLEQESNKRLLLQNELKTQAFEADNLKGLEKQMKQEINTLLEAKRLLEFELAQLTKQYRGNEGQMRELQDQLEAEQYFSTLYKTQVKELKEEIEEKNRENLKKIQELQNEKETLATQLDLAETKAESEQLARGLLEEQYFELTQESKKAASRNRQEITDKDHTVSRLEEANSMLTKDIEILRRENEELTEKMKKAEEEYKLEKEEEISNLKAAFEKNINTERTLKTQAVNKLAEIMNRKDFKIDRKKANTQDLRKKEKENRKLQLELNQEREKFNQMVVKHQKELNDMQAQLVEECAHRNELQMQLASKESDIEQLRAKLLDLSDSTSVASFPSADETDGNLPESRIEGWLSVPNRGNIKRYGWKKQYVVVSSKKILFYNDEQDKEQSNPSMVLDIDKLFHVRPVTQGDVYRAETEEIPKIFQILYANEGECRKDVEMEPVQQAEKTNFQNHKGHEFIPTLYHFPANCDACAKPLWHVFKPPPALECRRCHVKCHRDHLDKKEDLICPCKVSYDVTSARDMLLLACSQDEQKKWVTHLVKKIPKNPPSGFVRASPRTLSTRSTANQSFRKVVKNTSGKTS
pIC50 (ROCK1),pIC50 (ROCK2),SMILES
6.06,6.54,"C[C@@H](NC(=O)c1ccc(-c2cn[nH]c2)c(C#N)c1)c1ccc(F)cc1 [Example 193, 3-cyano-N-[(1R)-1-(4-fluorophenyl)ethyl]-4-(1H-pyrazol-4-yl)benzamide]"
7.57,8.01,"CC(O)c1cc(C(=O)N[C@H](C)c2ccccc2)ccc1-c1cn[nH]c1 (stereo partly drawn) [Example 281, 3-(1-hydroxyethyl)-N-[(1R)-1-phenylethyl]-4-(1H-pyrazol-4-yl)benzamide]"
8.47,9.30,"Cc1cc(C(=O)NCc2cccc(C(=O)NCC3CC3)c2)ccc1-c1cn[nH]c1 [Example 243, N-({3-[(cyclopropyl-methyl)carbamoyl]phenyl}methyl)-3-methyl-4-(1H-pyrazol-4-yl)benzamide]"
7.41,7.56,"COc1cc(C(=O)NCC(C#N)c2ccccc2)ccc1-c1cn[nH]c1 (stereo not drawn) [Example 118, N-(2-cyano-2-phenylethyl)-3-methoxy-4-(1H-pyrazol-4-yl)benzamide]"
8.18,8.72,"COc1cc(C(=O)N[C@H](CNS(C)(=O)=O)c2ccccc2)ccc1-c1cn[nH]c1 [Example 260, N-[(1S)-2-methane-sulfonamido-1-phenylethyl]-3-methoxy-4-(1H-pyrazol-4-yl)benzamide]"
7.66,8.40,"COc1cc(C(=O)NCc2cccc(OC(F)F)c2)ccc1-c1cn[nH]c1 [Example 78, N-(3-(difluoro-methoxy)benzyl)-3-methoxy-4-(1H-pyrazol-4-yl)benzamide]"
8.04,8.57,"COc1cc(C(=O)N[C@H](C)c2ccc(F)cc2)ccc1-c1cn[nH]c1 [Example 73, (R)-N-(1-(4-fluorophenyl)ethyl)-3-methoxy-4-(1H-pyrazol-4-yl)benzamide]"
7.11,7.63,"CC[C@@H](NC(=O)c1ccc(-c2cn[nH]c2)c(OC)c1)c1c(F)cccc1F [Example 264, N-[(1R)-1-(2,6-Difluorophenyl)propyl]-3-methoxy-4-(1H-pyrazol-4-yl)benzamide]"
7.80,8.87,"COc1cc(C(=O)NCc2ccc(Cl)cc2F)ccc1-c1cn[nH]c1 [Example 99, N-[(4-chloro-2-fluorophenyl)methyl]-3-methoxy-4-(1H-pyrazol-4-yl)benzamide]"
5.60,6.32,"COc1cc(C(=O)NCc2cccc(CN(C)C)c2)ccc1-c1cn[nH]c1 [Example 85, N-({3-[(dimethylamino)methyl]phenyl}methyl)-3-methoxy-4-(1H-pyrazol-4-yl)benzamide]"
8.47,9.08,"COc1ccc(F)c(C(C)NC(=O)c2ccc(-c3cn[nH]c3)c(OC)c2)c1 (stereo not drawn) [Example 140, N-[1-(2-fluoro-5-methoxyphenyl)ethyl]-3-methoxy-4-(1H-pyrazol-4-yl)benzamide]"
6.10,6.73,"COc1cccc(CNC(=O)c2ccc(-c3cn[nH]c3)cc2CO)c1 [Example 161, 2-(hydroxymethyl)-N-[(3-methoxyphenyl)methyl]-4-(1H-pyrazol-4-yl)benzamide]"
7.72,8.18,"COc1ccc(F)c(C(C)NC(=O)c2ccc(-c3cn[nH]c3)cc2OC)c1 (stereo not drawn) [Example 203, N-[1-(2-fluoro-5-methoxyphenyl)ethyl]-2-methoxy-4-(1H-pyrazol-4-yl)benzamide]"
6.66,7.67,"COc1c(-c2cn[nH]c2)ccc(C(=O)N[C@H](CO)c2c(F)cccc2F)c1F [Example 199, N-[(1S)-1-(2,6-difluorophenyl)-2-hydroxyethyl]-2-fluoro-3-methoxy-4-(1H-pyrazol-4-yl)benzamide]"
8.65,8.11,"C[C@@H](NC(=O)c1ccc(-c2cn[nH]c2)c(O)c1)c1ccc(F)cc1 [Example 183, N-[(1R)-1-(4-fluorophenyl)ethyl]-3-hydroxy-4-(1H-pyrazol-4-yl)benzamide]"
